From patent publication US20070258921A1, “PROCESS FOR DEPIGMENTING THE SKIN” (L'OREAL, priority 2006, published 2007)

Columns and labels:
[1] = tested on: cocultures of keratinocytes and of melanocytes; assay: Inhibition of melanin synthesis (ratio of thiouracil to leucine incorporation) in keratinocyte/melanocyte cocultures; type: cell-based
Protocol: (§1) The modulating effect with regard to melanogenesis of the compounds tested was measured according to the method described in Patent FR-A-2 734 825 and in the paper by R. Schmidt, P. Krien and M. Régnier, Anal. Biochem., 235(2), 113-18, 1996. This test is carried out on cocultures of keratinocytes and of melanocytes.
(§2) For the compound tested, the following were determined:
the inhibitory activity with regard to the synthesis of melanin, by estimating the ratio of the incorporation of thiouracil to the incorporation of leucine, with respect to 100% of the control (the control corresponds to the test carried out without compound to be tested). The IC50 (concentration at which the synthesis of melanin is inhibited by 50%) values were determined.

[2] = tested on: cocultures of keratinocytes and of melanocytes; assay: Cytotoxicity by estimating the incorporation of leucine in keratinocyte/melanocyte cocultures; type: cell-based
Protocol: as §1, §2
the cytotoxicity, by estimating the incorporation of leucine, […]

Row | IC50 ([1]; ratio of thiouracil to leucine incorporation, with respect to 100% of the control, read-out: IC50 (concentration at which the synthesis of melanin is inhibited by 50%)) | Structure (SMILES) | inhibition at 100 µM ([1]; at the concentration of 100 μM, read-out: melanin synthesis inhibited) | Cytotoxicity [2]
1 |  | Nc1ncnc2c1ncn2[C@@H]1O[C@H](CO)[C@@H](O)[C@H]1O [adenosine, reference compound] | 20% | 
2 | 35 µM | CC(=O)OC[C@H]1O[C@@H](n2cnc3c(N)ncnc32)[C@@H]2OC(C)(C)O[C@@H]21 [Compound H, 2′,3′-isopropylidene-5′-acetyladenosine] |  | No
